{
  "source": "patent US12622895B2",
  "about": "“Anti-neurodegenerative combinations and use for treatment of neurodegenerative diseases” (ALTO NEUROSCIENCE, INC., priority 2018, dated 2026)",
  "key": {"subjects": {"system": "subjects", "settings": "in vivo"}, "alpha-synuclein": {"biological_target": "alpha-synuclein (Homo sapiens, UniProt P37840)", "settings": "cited from earlier work"}, "patients [1]": {"system": "patients", "settings": "5 mg/day of pramipexole, cited from earlier work"}, "mouse PD model": {"system": "mouse PD model", "settings": "cited from earlier work"}, "[2]": {"biological_target": "human wild-type alpha-synuclein (Homo sapiens, UniProt P37840)", "settings": "by H2O2 plus cytochrome c; cited from earlier work"}, "[3]": {"system": "human neuroblastoma SH-SY5Y cells", "settings": "cited from earlier work"}, "[4]": {"system": "α-synuclein in peripheral blood exosomes", "settings": "PD patients, approved therapeutic doses; cited from earlier work"}, "PD patients": {"system": "PD patients", "settings": "doses approved for the motor symptoms of PD; 535 PD patients; cited from earlier work"}, "Parkinsonian patient": {"system": "Parkinsonian patient", "settings": "one patient, cited from earlier work"}, "patients [5]": {"system": "patients", "settings": "in vivo; cited from earlier work"}, "rodents": {"system": "rodents", "settings": "large doses, acute systemic administration; cited from earlier work"}, "6-OHDA induced damage": {"system": "6-OHDA induced damage", "settings": "toxin-induced model of PD; cited from earlier work"}, "MPTP induced damage": {"system": "MPTP induced damage", "settings": "toxin-induced model of PD; cited from earlier work"}, "Caenorhabditis elegans": {"system": "Caenorhabditis elegans", "settings": "C. elegans; cited from earlier work"}, "rodent": {"system": "rodent", "settings": "fluoxetine added to pramipexole; cited from earlier work"}, "animals": {"system": "animals", "settings": "cited from earlier work"}, "[6]": {"system": "patients with secondary progressive multiple sclerosis", "settings": "high-dose, 140 patients, cited from earlier work"}, "brain cell systems": {"system": "brain cell systems", "settings": "cited from earlier work"}, "MPTP-treated mice": {"system": "MPTP-treated mice", "settings": "20 mg/kg; cited from earlier work"}, "[7]": {"system": "mice that received 6-hydroxydopamine", "settings": "injection, 30 mg/kg; cited from earlier work"}, "[8]": {"system": "rat corticostriatal slices", "settings": "0.3, 1, 3 and 10 μM; cited from earlier work"}, "[9]": {"system": "A53T α-synuclein-induced neurodegeneration", "settings": "cited from earlier work"}, "Engrailed mutant mice": {"system": "Engrailed mutant mice", "settings": "cited from earlier work"}, "patients with PD": {"system": "patients with PD", "settings": "25 mg-50 mg, alone or with levodopa; cited from earlier work"}},
  "note": "Like-named read-outs stand apart in the source and are kept apart here.",
  "data": [
    {"smiles": "CCCN[C@H]1CCc2nc(N)sc2C1", "note": "[Pramipexole, (S)-6-propylamino-4,5,6,7-tetrahydro-1,3-benzothiazole-2-amine]", "values": [
      {"measurement": "first intolerable dose reached", "setting": "subjects; human", "result": "All subjects reached FID-1"},
      {"measurement": "dose limiting toxicity", "setting": "subjects", "result": "gastro-intestinal adverse events"},
      {"measurement": "oligomerization (and aggregation) of alpha-synuclein in vitro", "setting": "alpha-synuclein", "result": "diminishes synuclein oligomer formation"},
      {"measurement": "nausea, patients", "setting": "patients [1]", "result": 76, "unit": "%"},
      {"measurement": "vomiting, patients", "setting": "patients [1]", "result": 39, "unit": "%"},
      {"measurement": "patients not able to complete the study", "setting": "patients [1]; presumably intolerable GI adverse events", "result": 36, "unit": "%"},
      {"measurement": "toxic effects of rotenone on dopaminergic neurons", "setting": "mouse PD model; mouse PD model", "result": "inhibits the toxic effects of rotenone on dopaminergic neurons"},
      {"measurement": "immunoreactivity for alpha-synuclein", "setting": "mouse PD model; rotenone mouse PD model", "result": "reducing immunoreactivity for alpha-synuclein"},
      {"measurement": "in vitro oligomerization of human wild-type alpha-synuclein", "setting": "[2]", "result": "decreases"},
      {"measurement": "aggregation of alpha-synuclein", "setting": "[3]", "result": "inhibit the aggregation of alpha-synuclein"},
      {"measurement": "magnitude of the effect on alpha-synuclein expression", "setting": "[4]", "result": "small"},
      {"measurement": "neuroprotective (disease modifying) activity", "setting": "PD patients", "result": "failed to evidence neuroprotective (i.e., disease modifying) activity"},
      {"measurement": "hallucinations", "setting": "Parkinsonian patient; extended-release formulation, pramipexole 4.5 mg/day with levodopa, entcapone, selegiline and zonisamide", "result": "induce hallucinations"},
      {"measurement": "hallucinations", "setting": "Parkinsonian patient; immediate release formulation, same combination", "result": "not"},
      {"measurement": "side effects of the approved doses, often dose-limiting", "setting": "patients [5]", "result": "nausea, vomiting, somnolence, confusion, postural hypotension, and hallucinations as well as gastrointestinal disturbances"}
    ]},
    {"smiles": "CNCCC(Oc1ccc(C(F)(F)F)cc1)c1ccccc1", "note": "(stereo not drawn) [fluoxetine, 1-methylamino-3-phenyl-3-[4-(trifluoromethyl)phenoxy]propane]", "values": [
      {"measurement": "extracellular concentrations of norepinephrine and dopamine", "setting": "rodents", "result": "significant increase"},
      {"measurement": "6-OHDA induced damage", "setting": "6-OHDA induced damage", "result": "protect against"},
      {"measurement": "MPTP induced damage", "setting": "MPTP induced damage", "result": "protect against"},
      {"measurement": "amyloid-β oligomers", "setting": "Caenorhabditis elegans", "result": "reducing amyloid-β oligomers"},
      {"measurement": "amyloid-β-induced paralysis", "setting": "Caenorhabditis elegans", "result": "significantly delay"},
      {"measurement": "life span", "setting": "Caenorhabditis elegans", "result": "extend life span"},
      {"measurement": "thermal stress resistance", "setting": "Caenorhabditis elegans", "result": "increase thermal stress resistance"},
      {"measurement": "activity of pramipexole in the forced swimming test", "setting": "rodent", "result": "enhance the activity of pramipexole"}
    ]},
    {"smiles": "CCC(C)(C)C(=O)O[C@H]1C[C@@H](C)C=C2C=C[C@H](C)[C@H](CC[C@@H]3C[C@@H](O)CC(=O)O3)[C@H]21", "note": "[simvastatin, (1S,3R,7S,8S,8aR)-8-{2-[(2R,4R)-4-hydroxy-6-oxotetrahydro-2H-pyran-2-yl]ethyl}-3,7-dimethyl-1,2,3,7,8,8a-hexahydronaphthalen-1-yl 2,2-dimethylbutanoate]", "values": [
      {"measurement": "consequences of dopaminergic neurotoxin MPTP", "setting": "animals", "result": "protect against the deleterious consequences of dopaminergic neurotoxin MPTP"},
      {"measurement": "tolerability and safety", "setting": "[6]", "result": "well tolerated and safe"},
      {"measurement": "annualised rate of whole-brain atrophy", "setting": "[6]; versus placebo", "result": "reduced the annualised rate of whole-brain atrophy compared with placebo"},
      {"measurement": "dopaminergic neurodegeneration", "setting": "brain cell systems; 6-OHDA-lesioned cell model (Xu et al. 2013)", "result": "robust neuroprotection against dopaminergic neurodegeneration"},
      {"measurement": "consequences of the dopaminergic neurotoxin 6-OHDA", "setting": "brain cell systems; brain cell systems", "result": "protect against the deleterious consequences of the dopaminergic neurotoxin 6-hydroxydopamine"}
    ]},
    {"smiles": "NS(=O)(=O)Cc1noc2ccccc12", "note": "[zonisamide, benzo[d]isoxazol-3-ylmethanesulfonamide]", "values": [
      {"measurement": "oligomerization (and aggregation) of alpha-synuclein in vitro", "setting": "alpha-synuclein", "result": "inhibits the in vitro oligomerization and aggregation of alpha-synuclein"},
      {"measurement": "loss of nigral TH-positive neurons", "setting": "MPTP-treated mice", "result": "reduced the loss of nigral TH-positive neurons"},
      {"measurement": "striatal dopamine depletion", "setting": "MPTP-treated mice", "result": "attenuating the associated striatal dopamine depletion"},
      {"measurement": "loss of nigral dopamine neurons", "setting": "[7]", "result": "prevented the loss of nigral dopamine neurons"},
      {"measurement": "rotenone-induced toxicity (loss of corticostriatal field potential amplitude)", "setting": "[8]", "result": "significantly reduced the rotenone-induced toxicity"},
      {"measurement": "duration of the effect", "setting": "[9]; after transgene injection", "result": "lasted at least eight weeks"},
      {"measurement": "survival of nigrostriatal dopamine neurons", "setting": "[9]; oral, 40 mg/kg/day", "result": "no impact"},
      {"measurement": "pace of degeneration", "setting": "[9]; oral, 40 mg/kg/day, four weeks after injection of the viral vector, versus control group", "result": "significantly delayed the pace of degeneration"},
      {"measurement": "survival of nigrostriatal dopaminergic neurons, striatal terminals and motor function", "setting": "Engrailed mutant mice; chronic administration, versus saline", "result": "improved the survival of nigrostriatal dopaminergic neurons as well as their striatal dopaminergic terminals and motor function"},
      {"measurement": "brain-derived neurotrophic factor content in striatum and ventral midbrain", "setting": "Engrailed mutant mice; versus saline-treated controls", "result": "increased"},
      {"measurement": "motor symptoms", "setting": "patients with PD", "result": "improve motor symptoms"}
    ]}
  ]
}
